Test results as given in patent US10308637B2 (LifeSci Pharmaceuticals, Inc., priority 2015, dated 2019).

Experiment: Contact Assay (percentage inhibition from fluorescence intensity)
Type: biochemical
Procedure: The percentage inhibition was calculated using the following equation:
[formula] where, Mean(BG) is the average value of the fluorescence intensity of the background wells and Mean(PC) is the average value of the fluorescence intensity of the positive control wells.
Table 4 provides the EC50 values of various compounds disclosed herein.

| EC50 [nM] | SMILES |
| --- | --- |
| ≤ 100 | Cc1cnc2c(S(C)(=O)=O)cc(Cc3cc(C(=O)NCc4c(C)cc(N)nc4C)ccn3)cc2c1 [Example 15, N-((6-amino-2,4-dimethylpyridin-3-yl)methyl)-2-((3-methyl-8-(methylsulfonyl)quinolin-6-yl)methyl)isonicotinamide] |
| ≤ 100 | Cc1cnc2c(S(C)(=O)=O)cc(Cc3cc(C(=O)NCc4ccc5c(N)nccc5c4)ccn3)cc2c1 [Example 16, N-((1-aminoisoquinolin-6-yl)methyl)-2-((3-methyl-8-(methylsulfonyl)quinolin-6-yl)methyl)isonicotinamide] |
| ≤ 100 | Cc1cnc2c(S(C)(=O)=O)cc(Cc3cc(C(=O)NCc4cc5c(Cl)c[nH]c5cc4F)ccn3)cc2c1 [Example 17, N-((3-chloro-6-fluoro-1H-indol-5-yl)methyl)-2-((3-methyl-8-(methylsulfonyl)quinolin-6-yl)methyl)isonicotinamide] |
| 100 to 1000 | Cc1cnc2c(S(C)(=O)=O)cc(Cc3cc(C(=O)NCc4cc5cc[nH]c5cc4F)ccn3)cc2c1 [Example 18, N-((6-fluoro-1H-indol-5-yl)methyl)-2-((3-methyl-8-(methylsulfonyl)quinolin-6-yl)methyl)isonicotinamide] |
| ≤ 100 | Cc1cnc2c(S(C)(=O)=O)cc(Cc3cc(C(=O)NCc4n[nH]c5ccc(Cl)cc45)ccn3)cc2c1 [Example 20, N-((5-chloro-1H-indazol-3-yl)methyl)-2-((3-methyl-8-(methylsulfonyl)quinolin-6-yl)methyl)isonicotinamide] |
| ≤ 100 | Cc1cnc2c(S(C)(=O)=O)cc(Cc3cc(C(=O)NCc4ccc5[nH]cc(Cl)c5c4F)ccn3)cc2c1 [Example 21, N-((3-chloro-4-fluoro-1H-indol-5-yl)methyl)-2-((3-methyl-8-(methylsulfonyl)quinolin-6-yl)methyl)isonicotinamide] |
| 100 to 1000 | O=C(NCc1cnc2[nH]cc(Cl)c2c1)c1ccnc(Cc2ccc3ncc(Cl)cc3c2)c1 [Example 38, N-(3-Chloro-1H-pyrrolo[2,3-b]pyridin-5-ylmethyl)-2-(3-chloro-quinolin-6-ylmethyl)-isonicotinamide] |
| 100 to 1000 | O=C(NCc1ccc2[nH]cc(Cl)c2c1F)c1ccnc(Cc2ccc3ncc(Cl)cc3c2)c1 [Example 40, N-(3-Chloro-4-fluoro-1H-indol-5-ylmethyl)-2-(3-chloro-quinolin-6-ylmethyl)-isonicotinamide] |
| ≤ 100 | Cc1nc(N)ccc1CNC(=O)c1ccnc(Cc2cc(C(N)=O)c3ncc(Cl)cc3c2)c1 [Example 62, 6-((4-(((6-amino-2-methylpyridin-3-yl)methyl)carbamoyl)pyridin-2-yl)methyl)-3-chloroquinoline-8-carboxamide] |
| ≤ 100 | NC(=O)c1cc(Cc2cc(C(=O)NCc3ccc4c(N)nccc4c3)ccn2)cc2cc(Cl)cnc12 [Example 64, 6-((4-(((1-aminoisoquinolin-6-yl)methyl)carbamoyl)pyridin-2-yl)methyl)-3-chloroquinoline-8-carboxamide] |
| 100 to 1000 | NC(=O)c1cc(Cc2cc(C(=O)NCc3cc4cc[nH]c4cc3F)ccn2)cc2cc(Cl)cnc12 [Example 66, 3-chloro-6-((4-(((6-fluoro-1H-indol-5-yl)methyl)carbamoyl)pyridin-2-yl)methyl)quinoline-8-carboxamide] |
| ≤ 100 | CS(=O)(=O)c1cc(Cc2cc(C(=O)NCc3cc4c(Cl)c[nH]c4cc3F)ccn2)cc2cc(Cl)cnc12 [Example 68, N-((3-chloro-6-fluoro-1H-indol-5-yl)methyl)-2-((3-chloro-8-(methylsulfonyl)quinolin-6-yl)methyl)isonicotinamide] |
| ≤ 100 | Cc1cnc2c(C#N)cc(Cc3cc(C(=O)NCc4c(C)cc(N)nc4C)ccn3)cc2c1 [Example 70, N-((6-amino-2,4-dimethylpyridin-3-yl)methyl)-2-((8-cyano-3-methylquinolin-6-yl)methyl)isonicotinamide] |
| ≤ 100 | Cc1cnc2c(C#N)cc(Cc3cc(C(=O)NCc4ccc5c(N)nccc5c4)ccn3)cc2c1 [Example 71, N-((1-aminoisoquinolin-6-yl)methyl)-2-((8-cyano-3-methylquinolin-6-yl)methyl)isonicotinamide] |
| 100 to 1000 | Cc1cnc2c(C#N)cc(Cc3cc(C(=O)NCc4cnc5[nH]cc(Cl)c5c4)ccn3)cc2c1 [Example 73, N-((3-chloro-1H-pyrrolo[2,3-b]pyridin-5-yl)methyl)-2-((8-cyano-3-methylquinolin-6-yl)methyl)isonicotinamide] |
| ≤ 100 | Cc1cnc2c(C(N)=O)cc(Cc3cc(C(=O)NCc4c(C)cc(N)nc4C)ccn3)cc2c1 [Example 77, 6-((4-(((6-amino-2,4-dimethylpyridin-3-yl)methyl)carbamoyl)pyridin-2-yl)methyl)-3-methylquinoline-8-carboxamide] |
| ≤ 100 | Cc1cnc2c(C(N)=O)cc(Cc3cc(C(=O)NCc4cc5c(Cl)c[nH]c5cc4F)ccn3)cc2c1 [Example 78, 6-((4-(((3-chloro-6-fluoro-1H-indol-5-yl)methyl)carbamoyl)pyridin-2-yl)methyl)-3-methylquinoline-8-carboxamide] |
| ≤ 100 | Cc1cnc2c(C(N)=O)cc(Cc3cc(C(=O)NCc4ccc5c(N)nccc5c4)ccn3)cc2c1 [Example 79, 6-((4-(((1-aminoisoquinolin-6-yl)methyl)carbamoyl)pyridin-2-yl)methyl)-3-methylquinoline-8-carboxamide] |
| ≤ 100 | Cc1cnc2c(C(N)=O)cc(Cc3cc(C(=O)NCc4cnc5[nH]cc(Cl)c5c4)ccn3)cc2c1 [Example 80, 6-((4-(((3-chloro-1H-pyrrolo[2,3-b]pyridin-5-yl)methyl)carbamoyl)pyridin-2-yl)methyl)-3-methylquinoline-8-carboxamide] |
| ≤ 100 | Cc1cnc2c(C(=O)O)cc(Cc3cc(C(=O)NCc4c(C)cc(N)nc4C)ccn3)cc2c1 [Example 84, 6-((4-(((6-amino-2,4-dimethylpyridin-3-yl)methyl)carbamoyl)pyridin-2-yl)methyl)-3-methylquinoline-8-carboxylic acid] |
| ≤ 100 | COC(=O)c1cc(Cc2cc(C(=O)NCc3c(C)cc(N)nc3C)ccn2)cc2cc(Cl)cnc12 [Example 92, methyl 6-((4-(((6-amino-2,4-dimethylpyridin-3-yl)methyl)carbamoyl)pyridin-2-yl)methyl)-3-chloroquinoline-8-carboxylate] |
| ≤ 100 | Cc1cc(N)nc(C)c1CNC(=O)c1ccnc(Cc2cc(C(=O)O)c3ncc(Cl)cc3c2)c1 [Example 93, 6-((4-(((6-amino-2,4-dimethylpyridin-3-yl)methyl)carbamoyl)pyridin-2-yl)methyl)-3-chloroquinoline-8-carboxylic acid] |

| SMILES | EC50 [nM] |
| --- | --- |
| Cc1nc(N)ccc1CNC(=O)c1ccnc(Cc2ccc3ncc(Cl)cc3c2)c1 [Example 34, N-((6-amino-2-methylpyridin-3-yl)methyl)-2-((3-chloroquinolin-6-yl)methyl)isonicotinamide] | ≤ 100 |
| Cc1cc(N)nc(C)c1CNC(=O)c1ccnc(Cc2ccc3ncc(Cl)cc3c2)c1 [Example 35, N-((6-amino-2,4-dimethylpyridin-3-yl)methyl)-2-((3-chloroquinolin-6-yl)methyl)isonicotinamide] | ≤ 100 |
| N#Cc1cc(Cc2cc(C(=O)NCc3ccc4c(N)nccc4c3)ccn2)cc2cc(Cl)cnc12 [Example 57, N-(1-amino-isoquinolin-6-ylmethyl)-2-(3-chloro-8-cyano-quinolin-6-ylmethyl)-isonicotinamide] | 100 to 1000 |
| NC(=O)c1cc(Cc2cc(C(=O)NCc3n[nH]c4ccc(Cl)cc34)ccn2)cc2cc(Cl)cnc12 [Example 60, 3-chloro-6-((4-(((5-chloro-1H-indazol-3-yl)methyl)carbamoyl)pyridin-2-yl)methyl)quinoline-8-carboxamide] | 100 to 1000 |
| NC(=O)c1cc(Cc2cc(C(=O)NCc3cnc4[nH]cc(Cl)c4c3)ccn2)cc2cc(Cl)cnc12 [Example 61, 3-chloro-6-((4-(((3-chloro-1H-pyrrolo[2,3-b]pyridin-5-yl)methyl)carbamoyl)pyridin-2-yl)methyl)quinoline-8-carboxamide] | 100 to 1000 |
| NC(=O)c1cc(Cc2cc(C(=O)NCc3ccc4[nH]cc(Cl)c4c3F)ccn2)cc2cc(Cl)cnc12 [Example 65, 3-chloro-6-((4-(((3-chloro-4-fluoro-1H-indol-5-yl)methyl)carbamoyl)pyridin-2-yl)methyl)quinoline-8-carboxamide] | ≤ 100 |
| Cc1cc(N)nc(C)c1CNC(=O)c1ccnc(Cc2cc(S(C)(=O)=O)c3ncc(Cl)cc3c2)c1 [Example 67, N-((6-amino-2,4-dimethylpyridin-3-yl)methyl)-2-((3-chloro-8-(methylsulfonyl)quinolin-6-yl)methyl)isonicotinamide] | ≤ 100 |
| Cc1nc(N)ccc1CNC(=O)c1ccnc(Cc2cc(S(C)(=O)=O)c3ncc(Cl)cc3c2)c1 [Example 69, N-((6-amino-2-methylpyridin-3-yl)methyl)-2-((3-chloro-8-(methylsulfonyl)quinolin-6-yl)methyl)isonicotinamide] | ≤ 100 |
| Cc1cnc2c(C(N)=O)cc(Cc3cc(C(=O)NCc4cc5cc[nH]c5cc4F)ccn3)cc2c1 [Example 83, 6-((4-(((6-fluoro-1H-indol-5-yl)methyl)carbamoyl)pyridin-2-yl)methyl)-3-methylquinoline-8-carboxamide] | 100 to 1000 |
| Cc1cc(N)nc(C)c1CNC(=O)c1ccnc(Cc2cc(F)c3ncc(Cl)cc3c2)c1 [Example 89, N-(6-amino-2,4-dimethyl-pyridin-3-ylmethyl)-2-(3-chloro-8-fluoro-quinolin-6-ylmethyl)-isonicotinamide] | ≤ 100 |
| Cc1nc(N)ccc1CNC(=O)c1ccnc(Cc2cc(F)c3ncc(Cl)cc3c2)c1 [Example 91, N-(6-amino-2-methyl-pyridin-3-ylmethyl)-2-(3-chloro-8-fluoro-quinolin-6-ylmethyl)-isonicotinamide] | ≤ 100 |
| Cc1nc(N)ccc1CNC(=O)c1ccnc(Cc2cc(CO)c3ncc(Cl)cc3c2)c1 [Example 97, N-((6-amino-2-methylpyridin-3-yl)methyl)-2-((3-chloro-8-(hydroxymethyl)quinolin-6-yl)methyl)isonicotinamide] | ≤ 100 |
